Experimental data taken from US4175081A, “5-Substituted thiadiazole ureas” (priority 1977, dated 1979).

Assays:
Crabgrass (CG) [1] = assay: Pre-emergence herbicide test; assay type: in vivo, Digitaria sanquinalis; conditions: Digitaria sanguinalis, pre-emergence, 336 h, two weeks after treatment; for pest or weed control: 2 lb/acre; for pest or weed control at 4483.4 g/ha: 4 lb/acre
Method in brief: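 Crabgrass (Digitaria sanquinalis) was surface seeded in 3' plastic pots of potting soil, covered with screened soil, and watered by sub-irrigation in greenhouse trays. Pots were seeded one day before spraying in a hood with a moving belt and fixed nozzle. Plants stayed in the greenhouse on sub-irrigation, and pre-emergence control was rated visually two weeks after treatment.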

Johnson grass (JG) [2] = assay: Pre-emergence herbicide test; assay type: in vivo, Sorgum helepense; conditions: Sorghum halepense, 336 h, two weeks after treatment; for pest or weed control at 2241.7 g/ha: 2 lb/acre; for pest or weed control at 4483.4 g/ha: 4 lb/acre
Method in brief: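 Visual injury or control rating two weeks post-treatment, after pre-emergence spray of 8 or 4 lbs active per acre (38 gal/acre) onto pots sown the previous day. Greenhouse watering by sub-irrigation only.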

Barnyard grass (BG) [3] = assay: Pre-emergence herbicide test; assay type: in vivo; conditions: Echinochloa crus-galli, 336 h, 2 lb/acre, two weeks after treatment
Method in brief: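 Greenhouse pre-emergence spray test: pots seeded one day before treatment received compound at rates of 8 or 4 lb/acre (38 gal/acre). Visual injury/control scores for Echinochloa crus-galli taken at two weeks, with watering by sub-irrigation only.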

Amaranth pigweed (PW) [4] = assay: Pre-emergence herbicide test; assay type: in vivo, Amaranthus retroflexus; conditions: 336 h, two weeks after treatment; for pest or weed control at 4483.4 g/ha: 4 lb/acre
Method in brief: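 Visual injury or control ratings were made at two weeks on pre-emergence pots, sub-irrigated in the greenhouse. Seeds were sown a day before a hood spray delivering 8 lbs/acre (or 4 lbs/acre) of compound in 38 gallons per acre.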

Turnip (TP) [5] = assay: Pre-emergence herbicide test; assay type: in vivo, Brassica sp.; conditions: Brassica rapa, pre-emergence, 336 h, two weeks after treatment; for pest or weed control at 2241.7 g/ha: 2 lb/acre; for pest or weed control at 4483.4 g/ha: 4 lb/acre
Method in brief: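 In this pre-emergence greenhouse test, turnip was seeded on the surface of potting soil in 3' plastic pots, lightly covered with screened soil, and watered from below. One day later the pots were sprayed in a belt-fed spray hood. Watering continued only by sub-irrigation, and percent control was visually scored two weeks after treatment.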

Cotton (CT) [6] = assay: Pre-emergence herbicide test; assay type: in vivo, Gossypium hirsutum var. DPL smooth leaf; conditions: Gossypium hirsutum, 336 h, two weeks after treatment; for pest or weed control at 2241.7 g/ha: 2 lb/acre; for pest or weed control at 4483.4 g/ha: 4 lb/acre
Method in brief: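 Visual injury/control ratings were taken at two weeks post-spray. Pots seeded a day earlier received compound pre-emergence at 8 lbs/acre, or 4 lbs/acre, in a 38 gallon/acre spray volume, and were then held in the greenhouse, watered only from below.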

Corn (CN) [7] = assay: Pre-emergence herbicide test; assay type: in vivo; conditions: Zea mays, 336 h, two weeks after treatment; for pest or weed control at 2241.7 g/ha: 2 lb/acre; for pest or weed control at 4483.4 g/ha: 4 lb/acre
Method in brief: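 Visual injury/control ratings were made 2 weeks post-spray on corn pots seeded (4 seeds, seed-diameter depth) the day before treatment. Application was a belt-hood spray of 38 gal/acre delivering 8 lbs active per acre, with a 4 lbs/acre rate also formulated. Watering was by sub-irrigation throughout.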

Bean (BN) [8] = assay: Pre-emergence herbicide test; assay type: in vivo, Phaseolus vulgaris var. Black Valentine; conditions: Phaseolus vulgaris, 336 h, two weeks after treatment; for pest or weed control at 2241.7 g/ha: 2 lb/acre; for pest or weed control at 4483.4 g/ha: 4 lb/acre
Method in brief: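 Visual injury/control ratings were taken two weeks post-spray on sub-irrigated Phaseolus vulgaris var. Black Valentine. Pots were sown a day before treatment. Pre-emergence spray delivered 8 lbs actual compound per acre (or 4 lbs/acre) at 38 gallons per acre.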

Crabgrass (CG) [9] = assay: Post-emergence herbicide test; assay type: in vivo, Digitaria sanquinalis; conditions: Digitaria sanguinalis, post-emergence, 336 h, two weeks after treatment; for pest or weed control: 2 lb/acre; for pest or weed control at 4483.4 g/ha: 4 lb/acre
Method in brief: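 Crabgrass (Digitaria sanquinalis) was surface seeded individually in 3' plastic pots of potting soil, covered with screened soil, and watered by sub-irrigation in greenhouse trays. Planting was staggered so seedlings reached the target stage together. Post-emergence sprays were applied in a hood with a removable belt and fixed nozzle, and control was visually rated two weeks after treatment.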

Johnson grass (JG) [10] = assay: Post-emergence herbicide test; assay type: in vivo, Sorgum helepense; conditions: Sorghum halepense, 336 h, two weeks after treatment; for pest or weed control: 2 lb/acre; for pest or weed control at 4483.4 g/ha: 4 lb/acre
Method in brief: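 Visual injury or control scores taken 2 weeks after a post-emergence spray of pot-grown plants. Application was 8 lbs/acre (or 4 lbs/acre) in 38 gal/acre. Plants were held in the greenhouse with sub-irrigation only.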

Barnyard grass (BG) [11] = assay: Post-emergence herbicide test; assay type: in vivo; conditions: Echinochloa crus-galli, 336 h, 2 lb/acre, two weeks after treatment
Method in brief: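 Greenhouse pot-grown barnyard grass seedlings sprayed post-emergence at 8 lbs active compound per acre (some at 4 lbs/acre) in 38 gallons per acre, then sub-irrigated. Injury or control rated visually two weeks after treatment.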

Amaranth pigweed (PW) [12] = assay: Post-emergence herbicide test; assay type: in vivo, Amaranthus retroflexus; conditions: 336 h, two weeks after treatment; for pest or weed control at 4483.4 g/ha: 4 lb/acre
Method in brief: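 Visual injury or control ratings were made two weeks after spraying, with greenhouse watering by sub-irrigation only. Treatment was post-emergence, when pigweed seedlings had 1 or 2 true leaves, at 8 lbs active compound per acre (4 lbs/acre formulations also made) in a 38 gallons-per-acre spray volume.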

Turnip (TP) [13] = assay: Post-emergence herbicide test; assay type: in vivo, Brassica sp.; conditions: Brassica rapa, post-emergence, 336 h, two weeks after treatment; for pest or weed control at 2241.7 g/ha: 2 lb/acre; for pest or weed control at 4483.4 g/ha: 4 lb/acre
Method in brief: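 A greenhouse post-emergence herbicide test on turnip. Seeds were sown on the surface of potting soil in 3' plastic pots, lightly covered with screened soil and watered from below. Planting was timed so seedlings had 1 or 2 true leaves above the cotyledons at spraying, done in a hood with a fixed nozzle. Control or injury was scored by eye after two weeks.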

Cotton (CT) [14] = assay: Post-emergence herbicide test; assay type: in vivo, Gossypium hirsutum var. DPL smooth leaf; conditions: Gossypium hirsutum, post-emergence, 336 h, two weeks after treatment; for pest or weed control at 2241.7 g/ha: 2 lb/acre; for pest or weed control at 4483.4 g/ha: 4 lb/acre
Method in brief: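 This greenhouse post-emergence test measured how well spray treatments controlled cotton. Seedlings of Gossypium hirsutum var. DPL smooth leaf, with expanded cotyledons and a first true leaf 1' in length, were sprayed with 50 ml formulations in a belt-fed spray hood. They were then returned to the greenhouse and watered only by sub-irrigation. Injury was scored visually as % control after two weeks.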

Corn (CN) [15] = assay: Post-emergence herbicide test; assay type: in vivo; conditions: Zea mays, 336 h, two weeks after treatment; for pest or weed control: 2 lb/acre; for pest or weed control at 4483.4 g/ha: 4 lb/acre
Method in brief: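 Greenhouse seedlings grown in potting soil and sprayed post-emergence at 8 lbs compound/acre (formulations also made for 4 lbs/acre) in 38 gallons/acre spray volume. Watering by sub-irrigation only. Injury or control rated visually two weeks after treatment.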

Bean (BN) [16] = assay: Post-emergence herbicide test; assay type: in vivo, Phaseolus vulgaris var. Black Valentine; conditions: Phaseolus vulgaris, post-emergence, 336 h, two weeks after treatment; for pest or weed control at 2241.7 g/ha: 2 lb/acre; for pest or weed control at 4483.4 g/ha: 4 lb/acre
Method in brief: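 Bean seedlings (Phaseolus vulgaris var. Black Valentine) were grown in potting soil in 3' pots until the primary leaves expanded. They were then sprayed under a hood with a removable belt and fixed nozzle, using 50 ml formulations. Afterward they were returned to the greenhouse and watered only by sub-irrigation. Percent control was judged visually two weeks after treatment.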

SMILES | pest or weed control (Crabgrass (CG) [1]) [%] | pest or weed control at 4483.4 g/ha (Crabgrass (CG) [1]) [%] | pest or weed control at 2241.7 g/ha (Johnson grass (JG) [2]) [%] | pest or weed control at 4483.4 g/ha (Johnson grass (JG) [2]) [%] | pest or weed control at 2241.7 g/ha (Barnyard grass (BG) [3]) [%] | pest or weed control at 4483.4 g/ha (Amaranth pigweed (PW) [4]) [%] | pest or weed control at 2241.7 g/ha (Turnip (TP) [5]) [%] | pest or weed control at 4483.4 g/ha (Turnip (TP) [5]) [%] | pest or weed control at 2241.7 g/ha (Cotton (CT) [6]) [%] | pest or weed control at 4483.4 g/ha (Cotton (CT) [6]) [%] | pest or weed control at 2241.7 g/ha (Corn (CN) [7]) [%] | pest or weed control at 4483.4 g/ha (Corn (CN) [7]) [%] | pest or weed control at 2241.7 g/ha (Bean (BN) [8]) [%] | pest or weed control at 4483.4 g/ha (Bean (BN) [8]) [%] | pest or weed control (Crabgrass (CG) [9]) [%] | pest or weed control at 4483.4 g/ha (Crabgrass (CG) [9]) [%] | pest or weed control (Johnson grass (JG) [10]) [%] | pest or weed control at 4483.4 g/ha (Johnson grass (JG) [10]) [%] | pest or weed control at 2241.7 g/ha (Barnyard grass (BG) [11]) [%] | pest or weed control at 4483.4 g/ha (Amaranth pigweed (PW) [12]) [%] | also measured
CNC(=O)Nc1nnc(C(F)F)s1 [Example 67] | 80 | 90 | 40 | 50 | 50 | 100 | 60 | 100 | 0 | 80 | 0 | 70 | 0 | 90 | 80 | 80 | 40 | 90 | 80 | 100 | pest or weed control at 2241.7 g/ha (Turnip (TP) [13]): 100%; pest or weed control at 4483.4 g/ha (Turnip (TP) [13]): 100%; pest or weed control at 2241.7 g/ha (Cotton (CT) [14]): 100%; pest or weed control at 4483.4 g/ha (Cotton (CT) [14]): 100%; pest or weed control (Corn (CN) [15]): 40%; pest or weed control at 4483.4 g/ha (Corn (CN) [15]): 70%; pest or weed control at 2241.7 g/ha (Bean (BN) [16]): 90%; pest or weed control at 4483.4 g/ha (Bean (BN) [16]): 100%
CNC(=O)Nc1nnc(C(F)(F)C(F)(F)F)s1 [Example 68] | 50 | 90 | 20 | 30 | 30 | 100 | 60 | 60 | 60 | 90 | 30 | 50 | 0 | 100 | 90 | 100 | 80 | 80 | 60 | 100 | pest or weed control at 2241.7 g/ha (Amaranth pigweed (PW) [4]; 2 lb/acre): 100%; pest or weed control at 2241.7 g/ha (Amaranth pigweed (PW) [12]; 2 lb/acre): 100%; pest or weed control at 2241.7 g/ha (Turnip (TP) [13]): 100%; pest or weed control at 4483.4 g/ha (Turnip (TP) [13]): 100%; pest or weed control at 2241.7 g/ha (Cotton (CT) [14]): 80%; pest or weed control at 4483.4 g/ha (Cotton (CT) [14]): 100%; pest or weed control (Corn (CN) [15]): 50%; pest or weed control at 4483.4 g/ha (Corn (CN) [15]): 100%; pest or weed control at 2241.7 g/ha (Bean (BN) [16]): 90%; pest or weed control at 4483.4 g/ha (Bean (BN) [16]): 100%
